Legend:
Type in all cases: in vivo
[1] = system: barnyardgrass (Echinochloa crus-galli, ECHCG); assay: Greenhouse herbicide screen, post-emerge application, phytotoxicity rating; conditions: POST emergent, 14 days after application, scale 0-100
Source text: (§1) A standard greenhouse herbicide activity screening system was used to evaluate the herbicidal efficacy and crop safety of these test compounds. Seven broadleaf weed species including redroot pigweed (Amaranthus retrofiexus, AMARE), velvetleaf (Abutilon theophrasti, ABUTH), sicklepod (Cassia obtusifolia, CASOB), ivyleaf morningglory (Ipomoea hederacea, IPOHE), lambsquarters (Chenopodium album, CHEAL), common ragweed (Ambrosia artemisiifolia L., AMBEL), and cocklebur (Xanthium strumarium, XANST) were used as test species. Four grass weed species including green foxtail (Setaria viridis, SETVI), barnyardgrass (Echinochloa crus-galli, ECHCG), johnsongrass (Sorghum halepense, SORHA), and large crabgrass (Digitaria sanguinalis, DIGSA) were also used. In addition, four crop species, field corn (Zea mays L., var. Dekalb 535, CORN), soybean (Glycine max L., var. Pella 86, SOY), upland rice (Oryza sp., var.Cocodrie, RICE) and wheat (Triticum aestivum L.) were included.
(§2) All plants were grown in 10 cm square plastic pots which were filled with a sandy loam soil mix. For pre-emerge tests, seeds were planted one day prior to application of the test compounds. For post-emerge tests, seeds were planted 8-21 days prior to the test to allow emergence and good foliage development prior to application of the test substances. At the time of the post-emerge application, plants of all species were usually at the 2-3 leaf stage of development.
(§3) All test compounds were dissolved in acetone and applied to the test units in a volume of 187 l/ha. Test materials were applied at rates ranging from 15 g ai/ha to 1000 g ai/ha using a track sprayer equipped with a TJ8001E even flow flat fan spray nozzle. Plants were arranged on a shelf so that the top of the canopy (post-emerge) or top of the soil surface (pre-emerge) was 40-45 cm below the nozzle. Pressurized air was used to force the test solution through the nozzle as it was mechanically advanced (via electrically driven chain drive) over the top of all test plants/pots. This application simulates a typical commercial field herbicide application.
(§4) Pre-emergence tests were top watered immediately after treatment to incorporate the test materials, then routinely top-watered for normal growth. Post-emerge test units were always bottom-watered.
(§5) At 14 days after application of the test materials, phytotoxicity ratings were recorded. A rating scale of 0-100 was used as previously described in Research Methods in Weed Science, 2nd edition, B. Truelove, Ed., Southern Weed Science Society, Auburn University, Auburn, Ala., 1977. Briefly, “0” corresponds to no damage and “100” corresponds to complete death of all plants in the test unit. This scale was used both to determine efficacy against weed species and damage to crop species. Herbicide activity data for various compounds of this invention, which are shown by compound No. in Tables 1-12, are shown in Tables 13 and 14.

[2] = system: cocklebur (Xanthium strumarium, XANST); assay: as above; conditions: POST emergent, 14 days after application, scale 0-100
Source text: as §1, §2, §3, §4, §5

[3] = system: common ragweed (Ambrosia artemisiifolia L., AMBEL); assay: as above; conditions: POST emergent, 14 days after application, scale 0-100
Source text: as §1, §2, §3, §4, §5

[4] = system: green foxtail (Setaria viridis, SETVI); assay: as above; conditions: POST emergent, 14 days after application, scale 0-100
Source text: as §1, §2, §3, §4, §5

[5] = system: ivyleaf morningglory (Ipomoea hederacea, IPOHE); assay: as above; conditions: POST emergent, 14 days after application, scale 0-100
Source text: as §1, §2, §3, §4, §5

[6] = system: johnsongrass (Sorghum halepense, SORHA); assay: as above; conditions: POST emergent, 14 days after application, scale 0-100
Source text: as §1, §2, §3, §4, §5

[7] = system: lambsquarters (Chenopodium album, CHEAL); assay: as above; conditions: POST emergent, 14 days after application, scale 0-100
Source text: as §1, §2, §3, §4, §5

[8] = system: large crabgrass (Digitaria sanguinalis, DIGSA); assay: as above; conditions: POST emergent, 14 days after application, scale 0-100
Source text: as §1, §2, §3, §4, §5

[9] = system: redroot pigweed (Amaranthus retrofiexus, AMARE); assay: as above; conditions: POST emergent, 14 days after application
Source text: as §1, §2, §3, §4, §5

[10] = system: sicklepod (Cassia obtusifolia, CASOB); assay: as above; conditions: POST emergent, 14 days after application, scale 0-100
Source text: as §1, §2, §3, §4, §5

[11] = system: velvetleaf (Abutilon theophrasti, ABUTH); assay: as above; conditions: POST emergent, 14 days after application, scale 0-100
Source text: as §1, §2, §3, §4, §5

[12] = system: barnyardgrass (Echinochloa crus-galli, ECHCG); assay: Greenhouse herbicide screen, pre-emerge application, phytotoxicity rating; conditions: PRE emergent, 14 days after application, rating scale 0-100
Source text: as §1, §2, §3, §4, §5

[13] = system: cocklebur (Xanthium strumarium, XANST); assay: as above; conditions: PRE emergent, 14 days after application, rating scale 0-100
Source text: as §1, §2, §3, §4, §5

[14] = system: common ragweed (Ambrosia artemisiifolia L., AMBEL); assay: as above; conditions: PRE emergent, 14 days after application, rating scale 0-100
Source text: as §1, §2, §3, §4, §5

[15] = system: green foxtail (Setaria viridis, SETVI); assay: as above; conditions: PRE emergent, 14 days after application, rating scale 0-100
Source text: as §1, §2, §3, §4, §5

[16] = system: ivyleaf morningglory (Ipomoea hederacea, IPOHE); assay: as above; conditions: PRE emergent, 14 days after application, rating scale 0-100
Source text: as §1, §2, §3, §4, §5

[17] = system: johnsongrass (Sorghum halepense, SORHA); assay: as above; conditions: PRE emergent, 14 days after application, rating scale 0-100
Source text: as §1, §2, §3, §4, §5

[18] = system: lambsquarters (Chenopodium album, CHEAL); assay: as above; conditions: PRE emergent, 14 days after application, rating scale 0-100
Source text: as §1, §2, §3, §4, §5

[19] = system: large crabgrass (Digitaria sanguinalis, DIGSA); assay: as above; conditions: PRE emergent, 14 days after application, rating scale 0-100
Source text: as §1, §2, §3, §4, §5

[20] = system: redroot pigweed (Amaranthus retrofiexus, AMARE); assay: as above; conditions: PRE emergent, 14 days after application, rating scale 0-100
Source text: as §1, §2, §3, §4, §5

[21] = system: sicklepod (Cassia obtusifolia, CASOB); assay: as above; conditions: PRE emergent, 14 days after application, rating scale 0-100
Source text: as §1, §2, §3, §4, §5

[22] = system: velvetleaf (Abutilon theophrasti, ABUTH); assay: as above; conditions: PRE emergent, 14 days after application, rating scale 0-100
Source text: as §1, §2, §3, §4, §5

With `CC(=NNC(=O)c1cc(-n2c(=O)cc(C(F)(F)F)n(C)c2=O)c(F)cc1Cl)C(C)(C)C` [Compound 6-5, 2-chloro-5-(3,6-dihydro-3-methyl-2,6-dioxo-4-(trifluoromethyl)-1(2H)-pyrimidinyl)-4-fluoro-benzoic Acid, 2-(1,2,2-trimethylpropylidene)hydrazide] the “phytotoxicity rating ECHCO” value ([1]; 63 g ai/ha) was 80, the “phytotoxicity rating ECHCO” value ([1]; 250 g ai/ha) was 95 and the “phytotoxicity rating XANST” value ([2]; 63 g ai/ha) was 70. For the same compound, the “phytotoxicity rating XANST” value ([2]; 250 g ai/ha) was 100, the “phytotoxicity rating AMBEL” value ([3]; 63 g ai/ha) was 60 and the “phytotoxicity rating AMBEL” value ([3]; 250 g ai/ha) was 80. The “phytotoxicity rating SETVI” value ([4]; 63 g ai/ha) was 30, the “phytotoxicity rating SETVI” value ([4]; 250 g ai/ha) was 55 and the “phytotoxicity rating IPOHE” value ([5]; 63 g ai/ha) was 75. For the same compound, the “phytotoxicity rating IPOHE” value ([5]; 250 g ai/ha) was 100, the “phytotoxicity rating SORHA” value ([6]; 63 g ai/ha) was 0 and the “phytotoxicity rating SORHA” value ([6]; 250 g ai/ha) was 90. For the same compound, the “phytotoxicity rating CHEAL” value ([7]; 63 g ai/ha) was 60, the “phytotoxicity rating CHEAL” value ([7]; 250 g ai/ha) was 95 and the “phytotoxicity rating DIGSA” value ([8]; 63 g ai/ha) was 75. For the same compound, the “phytotoxicity rating DIGSA” value ([8]; 250 g ai/ha) was 80, the “phytotoxicity rating AMARE” value ([9]; 63 g ai/ha, scale 0-100 (0 no damage, 100 complete death)) was 70 and the “phytotoxicity rating AMARE” value ([9]; 250 g ai/ha, scale 0-100) was 100. For the same compound, the “phytotoxicity rating CASOB” value ([10]; 63 g ai/ha) was 50, the “phytotoxicity rating CASOB” value ([10]; 250 g ai/ha) was 65 and the “phytotoxicity rating ABUTH” value ([11]; 63 g ai/ha) was 65. For the same compound, the “phytotoxicity rating ABUTH” value ([11]; 250 g ai/ha) was 100, the “phytotoxicity rating ECHCG” value ([12]; 63 g ai/ha) was 55 and the “phytotoxicity rating ECHCG” value ([12]; 250 g ai/ha) was 90. The “phytotoxicity rating XANST” value ([13]; 63 g ai/ha) was 55, the “phytotoxicity rating XANST” value ([13]; 250 g ai/ha) was 99 and the “phytotoxicity rating AMBEL” value ([14]; 63 g ai/ha) was 70. The “phytotoxicity rating AMBEL” value ([14]; 250 g ai/ha) was 100, the “phytotoxicity rating SETVI” value ([15]; 63 g ai/ha) was 60 and the “phytotoxicity rating SETVI” value ([15]; 250 g ai/ha) was 85. The “phytotoxicity rating IPOHE” value ([16]; 63 g ai/ha) was 100, the “phytotoxicity rating IPOHE” value ([16]; 250 g ai/ha) was 100 and the “phytotoxicity rating SORHA” value ([17]; 63 g ai/ha) was 85. For the same compound, the “phytotoxicity rating SORHA” value ([17]; 250 g ai/ha) was 99, the “phytotoxicity rating CHEAL” value ([18]; 63 g ai/ha) was 99 and the “phytotoxicity rating CHEAL” value ([18]; 250 g ai/ha) was 100. The “phytotoxicity rating DIGSA” value ([19]; 63 g ai/ha) was 90, the “phytotoxicity rating DIGSA” value ([19]; 250 g ai/ha) was 99 and the “phytotoxicity rating AMARE” value ([20]; 63 g ai/ha) was 99. For the same compound, the “phytotoxicity rating AMARE” value ([20]; 250 g ai/ha) was 100, the “phytotoxicity rating CASOB” value ([21]; 63 g ai/ha) was 50 and the “phytotoxicity rating CASOB” value ([21]; 250 g ai/ha) was 70. The “phytotoxicity rating ABUTH” value ([22]; 63 g ai/ha) was 95 and the “phytotoxicity rating ABUTH” value ([22]; 250 g ai/ha) was 100.

From patent US6770597B2, “Benzohydrazide derivatives as herbicides and desiccant compositions containing them” (Ishihara Sangyo Kaisha, Ltd., priority 2002, dated 2004)
